Results taken from ChEMBL document CHEMBL1201862, “PubChem BioAssay data set” (2004).
Calls of active or inactive are those of the source.

Columns and labels:
[1] = inhibitors of firefly luciferase expression or activity, dose response, H4 neuroglioma cells, luminescence (AID 1990); type: functional, cell-based
[2] = luciferase reporter signal reduction – luminescence, H4-C neuroglioblastoma cells, dose response (AID 2458); type: functional, cell-based;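 further: H4 neuroglioblastoma cells stably carrying a luciferase reporter gene fusion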
[3] = molecular target: T1, RNA-binding protein pos-1 (Caenorhabditis elegans, UniProt G5EF15); test: inhibitors of POS-1/mex-3 RNA binding, dose response, biochemical, fluorescence polarization (AID 1964);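 further: purified POS-1 fused to maltose binding protein made in E. coli; potency of compounds blocking POS-1 binding to fluorescent RNA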
T1 sequence (G5EF15 whole entry): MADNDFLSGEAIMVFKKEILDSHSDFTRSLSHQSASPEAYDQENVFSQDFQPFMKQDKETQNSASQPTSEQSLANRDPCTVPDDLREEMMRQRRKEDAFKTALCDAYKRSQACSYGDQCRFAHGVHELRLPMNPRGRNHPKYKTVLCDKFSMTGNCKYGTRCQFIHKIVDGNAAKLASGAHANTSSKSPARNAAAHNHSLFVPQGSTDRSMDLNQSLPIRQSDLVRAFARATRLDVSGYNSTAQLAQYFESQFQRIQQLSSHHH

[4] = Luminescence Cell-Based Dose Response HTS to Identify Inhibitors of 5'UTR Stem-Loop Driven Prion Protein mRNA Translation in H4 Neuroglioblastoma Cells. [Related pubchem assays: 1827 (Project Summary), 1813 (Primary HTS)]; type: functional
[5] = molecular target: T2, Zinc finger protein mex-5 (Caenorhabditis elegans, UniProt Q9XUB2); test: MEX-5/TCR-2 RNA interaction inhibitors, dose response, biochemical, C. elegans, fluorescence polarization (AID 1960)
T2 sequence (Q9XUB2 whole entry): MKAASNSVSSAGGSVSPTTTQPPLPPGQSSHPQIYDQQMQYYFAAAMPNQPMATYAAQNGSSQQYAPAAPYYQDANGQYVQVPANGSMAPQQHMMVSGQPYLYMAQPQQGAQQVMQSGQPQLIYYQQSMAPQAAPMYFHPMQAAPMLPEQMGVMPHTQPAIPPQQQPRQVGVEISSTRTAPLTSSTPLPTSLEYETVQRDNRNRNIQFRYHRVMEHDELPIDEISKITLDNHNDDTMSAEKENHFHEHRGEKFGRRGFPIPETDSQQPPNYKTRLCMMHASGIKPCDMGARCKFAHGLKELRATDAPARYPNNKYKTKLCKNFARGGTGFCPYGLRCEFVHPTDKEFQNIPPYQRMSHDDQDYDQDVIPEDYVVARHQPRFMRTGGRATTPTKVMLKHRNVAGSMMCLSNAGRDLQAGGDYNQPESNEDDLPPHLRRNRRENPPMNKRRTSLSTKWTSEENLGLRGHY

[6] = inhibitors of SNCA 5'UTR-driven reporter translation, confirmation, H4 neuroglioma cells, luminescence (AID 1988); type: functional, cell-based
[7] = inhibitors of SNCA 5'UTR-driven translation, confirmation, luminescence, H4 neuroglioblastoma cells, dose confirmation (AID 2454); type: functional, cell-based;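 further: H4 neuroglioblastoma cells carrying an alpha-synuclein 5'UTR luciferase reporter; potency for inhibition of the luciferase signal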
[8] = molecular target: Glucose-6-phosphate 1-dehydrogenase (Homo sapiens, UniProt P11413); test: human G6PD enzyme inhibitors, dose response, selectivity assay for P. falciparum G6PD inhibitor project, biochemical, fluorescence (AID 504792); type: functional
Glucose-6-phosphate 1-dehydrogenase, sequence (P11413 whole entry): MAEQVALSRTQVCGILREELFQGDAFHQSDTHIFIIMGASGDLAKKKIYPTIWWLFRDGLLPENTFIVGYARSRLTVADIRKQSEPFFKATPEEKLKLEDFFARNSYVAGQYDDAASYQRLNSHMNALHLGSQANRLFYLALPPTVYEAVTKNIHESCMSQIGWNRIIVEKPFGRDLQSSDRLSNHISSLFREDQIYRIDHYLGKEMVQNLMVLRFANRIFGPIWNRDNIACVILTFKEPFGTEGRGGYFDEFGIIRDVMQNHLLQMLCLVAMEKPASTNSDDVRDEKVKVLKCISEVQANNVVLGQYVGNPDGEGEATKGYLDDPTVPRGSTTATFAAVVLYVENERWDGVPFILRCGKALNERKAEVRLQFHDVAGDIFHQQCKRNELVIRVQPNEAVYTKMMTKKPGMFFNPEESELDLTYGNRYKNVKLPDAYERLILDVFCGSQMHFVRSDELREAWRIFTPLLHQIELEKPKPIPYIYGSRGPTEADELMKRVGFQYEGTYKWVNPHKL

[9] = A Cell Based Secondary Assay To Explore Cytotoxicity of Compounds that Sensitize Mycobacterium Tuberculosis to Beta-Lactam Antibiotics.; type: functional
Vero [10] = test: West Nile virus antiviral activity, cell-based, CPE readout (AID 1621); type: functional; conditions: Chlorocebus sabaeus
Vero [11] = test: cells; type: functional, cell-based; conditions: Chlorocebus sabaeus
[12] = molecular target: RNA-editing ligase 1, mitochondrial (Trypanosoma brucei brucei, UniProt P86926); test: TbREL1 ligase inhibitors, dose response, biochemical, fluorescence, Trypanosoma brucei (AID 1117295); type: functional
RNA-editing ligase 1, mitochondrial, sequence (P86926 whole entry): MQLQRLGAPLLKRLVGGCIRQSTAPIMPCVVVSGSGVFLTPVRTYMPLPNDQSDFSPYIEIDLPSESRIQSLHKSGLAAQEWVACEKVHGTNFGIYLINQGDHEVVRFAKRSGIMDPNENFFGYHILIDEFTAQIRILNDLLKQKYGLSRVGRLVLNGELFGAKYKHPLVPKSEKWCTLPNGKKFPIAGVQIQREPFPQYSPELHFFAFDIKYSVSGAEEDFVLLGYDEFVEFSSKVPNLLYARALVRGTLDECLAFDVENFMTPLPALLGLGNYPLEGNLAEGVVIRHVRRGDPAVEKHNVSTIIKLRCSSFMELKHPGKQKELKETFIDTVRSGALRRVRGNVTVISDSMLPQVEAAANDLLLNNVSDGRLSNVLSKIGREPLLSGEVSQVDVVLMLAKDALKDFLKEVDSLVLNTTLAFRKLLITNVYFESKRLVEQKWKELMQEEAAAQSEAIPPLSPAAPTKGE

Protein Tat = Protein Tat (Human immunodeficiency virus type 1 group M subtype B (isolate HXB2)(HIV-1), UniProt P04608); type: functional;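 further: tat binding to TAR RNA read out by fluorescence polarization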
Protein Tat, sequence (P04608 whole entry): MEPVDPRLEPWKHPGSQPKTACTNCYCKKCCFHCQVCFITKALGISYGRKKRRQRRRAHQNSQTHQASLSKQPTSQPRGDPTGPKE

[13] = P. falciparum late gametocyte killing, dose response, luminescence (AID 1117278); type: functional, cell-based;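 further: gametocytes exposed to compound for 24 hours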
[14] = Jurkat T cell cytotoxicity, dose response, cytotoxicity control for P. falciparum gametocyte viability project, luminescence (AID 1117277); type: functional, cell-based;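 further: potency reflects loss of cellular ATP meaning fewer viable cells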
[15] = P. falciparum 3D7-ScDHODH growth inhibitors, dose response, SYBR Green, dry powder samples (AID 1159570); type: functional, cell-based;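 further: parasite growth measured after 72 hours of compound exposure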
[16] = HepG2 cell cytotoxicity, dose response, cytotoxicity control, plate reader, dry powder samples (AID 1159569); type: functional, cell-based;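 further: inhibitor potency with signal falling toward the positive control level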
[17] = P. falciparum Dd2 growth inhibitors, dose response, SYBR Green, cherry-picked samples (AID 1159567); type: functional, cell-based
[18] = P. falciparum Dd2 blood-stage growth inhibition, dose response, SYBR Green fluorescence, erythrocytes, dry powder, set 2 (AID 1159574); type: functional, cell-based
[19] = P. falciparum Dd2 growth inhibitors, dose response, SYBR Green, dry powder samples (AID 1159566); type: functional, cell-based;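 further: potency for growth inhibition with lower SYBR green DNA signal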
[20] = P. falciparum ATP4 D1247Y mutant growth inhibitors, dose response, NITD609-resistant line, SYBR Green, dry powder (AID 1159571); type: functional, cell-based;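 further: parasites synchronized at ring stage by sorbitol before testing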

**Q.** Which results are given for `Cc1ccc2nc3sc(C(=O)N4CCOCC4)c(N)c3cc2c1`?
**A.** EC50 [1]: 2.01 µM (active); EC50 [2]: > 12 µM (inconclusive); EC50 [3]: 46.8 µM (active); EC50 [4]: < 100 nM (active); EC50 [5]: > 300 µM (inconclusive); EC50 [6]: 2.37 µM (active); EC50 [7]: 927 nM (active); IC50 [8]: > 80 µM (inactive)

**Q.** Which CC50 [9] does the source give for `NC1=C(c2nc(-c3ccc(Cl)cc3)cs2)C(=O)CN1CCCN1CCOCC1` here?
**A.** > 40 µM (active)

**Q.** What about the IC50 (Vero [10]) of the same compound?
**A.** 24.2 µM (active)

**Q.** What about the IC50 (Vero [11]) of the same compound?
**A.** 22 µM (active)

**Q.** For `COC(=O)C1=C(C)N(Cc2cccc(C(F)(F)F)c2)C(NCc2cc(OC)c(OC)c(OC)c2)=NC1c1ccccc1C(F)(F)F` (stereo unspecified), which IC50 [12] is on record?
**A.** > 96.6 µM (inactive)

**Q.** With `COc1ccc(C2CC(=O)Oc3cc(OC)ccc32)cc1` (stereo unspecified) as the compound, how does the IC50 (Protein Tat) read?
**A.** > 100 µM (active)

**Q.** Which results are given for `Nc1ccc(-c2cnc(-c3ccc(N)cc3)nc2)cc1`?
**A.** IC50 [13]: > 109 µM (inactive); IC50 [14]: > 83.3 µM (inactive)

**Q.** With `COc1cccc(C#Cc2ccc([C@H]3[C@@H](CO)N4C(=O)CN(C(=O)Cc5ccccc5)C[C@H]34)cc2)c1` as the compound, how does the AC50 [15] read?
**A.** 114 nM (active)

**Q.** What about the AC50 [16] of the same compound?
**A.** 21.1 µM (active)

**Q.** And the AC50 [17]?
**A.** < 300 nM (active)

**Q.** What about the AC50 [18] of the same compound?
**A.** 19.5 nM (active)

**Q.** What about the AC50 [19] of the same compound?
**A.** 30.1 nM (active)

**Q.** And the AC50 [20]?
**A.** 36.3 nM (active)
